Assay results taken from US8697096B2, “Tape preparation comprising etodolac in ionic liquid form” (priority 2007, dated 2014).

What was measured:
[1] = Tissue concentration of etodolac by administration route (oral vs transdermal), leg muscle of rat; format: in vivo; conditions: 12 mg/kg etodolac suspended in CMC, FIG. 8
Description: In the case of oral administration, four male SD rats (5 weeks old) are used as a group and 12 mg/kg of etodolac suspended in CMC is forced to be taken in by using a probe. The dose is fixed around about 1.1˜1.5 mg/rat. After a lapse of a certain period of time since the forced feeding, an animal is killed by blood removal under anesthesia. Later the leg was amputated, divided into skin and other tissues and the drug concentrations in the muscle tissue and plasma were assayed.
The applied area of the sample was adjusted so that transdermally available amount of etodolac was about 0.7 mg/rat when applied for 24 hours. After a lapse of a certain period of time since the application of the sample, an animal is killed by blood removal under anesthesia. Later the leg was amputated, divided into skin and other tissues and the drug concentrations in the muscle tissue and plasma were assayed.

drug-concentration in the muscle tissue [1] | SMILES | pKa (physchem)
not increased so much | CCc1cccc2c3c([nH]c12)C(CC)(CC(=O)O)OCC3 (stereo not drawn) [etodolac] | 4.65
– | CC(O)CN(CC(C)O)CC(C)O (stereo not drawn) [triisopropanolamine] | 8.03
